According to patent US9079913B2, “Spiro-oxindole MDM2 antagonists” (The Regents of the University of Michigan, priority 2009, dated 2015):
Like-named read-outs stand apart in the source and are kept apart here.

Assays:
[1] = system: Isogenic HCT-116 colon cancer cell lines; test: cells; type: cell-based;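 note: cells grown in 96-well plates in McCoy's 5A medium with 10% FBS, exposed to compound for 4 days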
Protocol: Cells were seeded in 96-well flat bottom cell culture plates at a density of 2−3×10^3 cells/well with compounds and incubated for 4 days.

[2] = system: cancer cell lines with wild-type p53 / mutated or deleted p53 (ATCC); test: Cell growth assay (WST-8), other cancer cell lines; type: cell-based
[3] = biological target: recombinant human His-tagged MDM2 protein (residues 1-118) (Homo sapiens (Human), UniProt Q00987); test: Fluorescence-polarization MDM2 binding assay;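 note: fluorescence polarization read after three hours of incubation in potassium phosphate buffer containing bovine gamma globulin and Triton X-100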
[4] = Homo sapiens, HCT-116, read-out: Inhibition of cell growth IC50, HCT116 p53 KO, Table 19B, HCT116 p53 KO
[5] = Homo sapiens, HCT-116, read-out: Inhibition of cell growth IC50, HCT116 p53 WT, Table 19B, HCT116 p53 WT
[6] = Homo sapiens, LNCaP, Table 19B, LNCaP cells, read-out: Inhibition of cell growth IC50, LNCaP
[7] = Homo sapiens, PC-3, Table 19B, PC3 cells, read-out: Inhibition of cell growth IC50, PC3
[8] = Table 19B, read-out: Binding affinities to MDM2 protein as determined by FP based assay IC50
[9] = read-out: Inhibition of cell growth IC50, HCT116 p53 KO, Table 19B, HCT116 p53 KO
[10] = read-out: Inhibition of cell growth IC50, HCT116 p53 WT, Table 19B, HCT116 p53 WT
[11] = Table 19B, LNCaP cells, read-out: Inhibition of cell growth IC50, LNCaP
[12] = Table 19B, PC3 cells, read-out: Inhibition of cell growth IC50, PC3
[13] = Homo sapiens, HCT-116, read-out: HCT-116 (p53-/-) IC50, Table 19A, HCT-116 p53-/-, cell growth
[14] = Homo sapiens, HCT-116, read-out: HCT-116 (p53 wild-type) IC50, Table 19A, HCT-116 p53 wild-type, cell growth
[15] = Homo sapiens, LNCaP, Table 19A, LNCAP cells, p53 wild-type, cell growth, read-out: LNCAP (p53 wild-type) IC50
[16] = Homo sapiens, PC-3, Table 19A, PC-3 cells, deleted p53, cell growth, read-out: PC-3 (deleted p53) IC50
[17] = Table 19A, FP binding assay, read-out: MDM2 IC50
[18] = Homo sapiens, SJSA-1, Table 19A, SJSA-1 cells, p53 wild-type, cell growth, read-out: SJSA-1 (p53 wild-type) IC50

recombinant human His-tagged MDM2 protein (residues 1-118), sequence (Q00987 1-118): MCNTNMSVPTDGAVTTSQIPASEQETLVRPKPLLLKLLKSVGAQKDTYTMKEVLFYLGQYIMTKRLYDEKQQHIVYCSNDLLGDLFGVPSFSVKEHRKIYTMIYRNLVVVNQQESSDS

SMILES	IC50 [1, 4]	IC50 [1, 5]	IC50 [2, 6]	IC50 [2, 7]	IC50 [3, 8]	IC50 [1, 13]	IC50 [1, 14]	IC50 [3, 17]	other results
CCCCC(C)(C)C[C@H]1N[C@@H](C(=O)NCC[C@H](O)CO)[C@H](c2cccc(Cl)c2)[C@@]12C(=O)Nc1cc(Cl)c(F)cc12 [MI-724]	5.3 ± 0.3 µM	1.1 ± 0.5 µM	1.2 ± 0.4 µM	3.9 ± 0.2 µM	< 1 µM				
CC(C)CC(C)(C)C[C@H]1N[C@@H](C(=O)NCC[C@H](O)CO)[C@H](c2cccc(Cl)c2)[C@@]12C(=O)Nc1cc(Cl)c(F)cc12 [MI-725]	5.8 ± 2.9 µM	0.7 µM	0.8 ± 0.1 µM	4.7 ± 1 µM	< 1 µM				
CC(C)CC(C)(C)C[C@H]1N(C)[C@@H](C(=O)NCC[C@H](O)CO)[C@H](c2cccc(Cl)c2)[C@@]12C(=O)Nc1cc(Cl)c(F)cc12 [MI-726]	8 ± 0.8 µM	2.3 ± 0.8 µM	2.3 ± 0.3 µM	5.1 ± 1.4 µM	< 5 µM				
CC(C)(C)C[C@H]1N[C@@H](C(=O)NCC[C@H](O)CO)[C@H](c2cccc(Cl)c2)[C@@]12C(=O)Nc1c(Cl)cccc12 [MI-727]	20.9 ± 1.1 µM	24.1 ± 0.7 µM	12.2 ± 0.5 µM	21.4 ± 4.8 µM	> 10 µM				
CCCCC(C)(C)C[C@H]1N(C)[C@@H](C(=O)NCC[C@H](O)CO)[C@H](c2cccc(Cl)c2)[C@@]12C(=O)Nc1cc(Cl)c(F)cc12 [MI-728]	16.9 ± 5.6 µM	4 ± 0.8 µM	2.1 ± 0.1 µM	7.1 ± 2 µM	< 5 µM				
CCCC(C)(C)C[C@H]1N[C@@H](C(=O)NCC[C@H](O)CO)[C@H](c2cccc(Cl)c2)[C@@]12C(=O)Nc1cc(Cl)c(F)cc12 [MI-729]	8.9 ± 0.1 µM	0.8 ± 0.2 µM	1 µM	6.1 ± 1.6 µM	< 1 µM				
CC(C)CC(C)(C)C[C@H]1N[C@@H](C(=O)NCCN2CCOCC2)[C@H](c2cccc(Cl)c2F)[C@@]12C(=O)Nc1cc(F)c(F)cc12 [MI-730]	7.8 ± 0.7 µM	1.4 ± 0.3 µM	1.7 ± 0.5 µM	6.3 ± 1.4 µM	< 1 µM				
CC(C)CC(C)(C)C[C@H]1N[C@@H](C(=O)NCC[C@H](O)CO)[C@H](c2cccc(Cl)c2F)[C@@]12C(=O)Nc1cc(Cl)c(F)cc12 [MI-731]	6.4 ± 1.7 µM	0.9 ± 0.5 µM	0.8 ± 0.5 µM	5.6 ± 1.9 µM	< 1 µM				
CC(C)CC(C)(C)C[C@H]1N[C@@H](C(=O)NCC[C@H](O)CO)[C@H](c2cccc(Cl)c2F)[C@@]12C(=O)Nc1cc(F)c(F)cc12 [MI-732]	10.2 ± 4.8 µM	0.7 ± 0.1 µM	0.7 µM	5.8 µM	< 1 µM				
CC(C)CC(C)(C)C[C@H]1N(C)[C@@H](C(=O)NCC[C@H](O)CO)[C@H](c2cccc(Cl)c2F)[C@@]12C(=O)Nc1cc(Cl)c(F)cc12 [MI-733]	8.7 ± 0.9 µM	2.4 ± 0.3 µM	2.2 ± 0.5 µM	5.4 ± 1.7 µM	> 1 µM				
CC(C)CC(C)(C)C[C@H]1N(C)[C@@H](C(=O)NCC[C@H](O)CO)[C@H](c2cccc(Cl)c2F)[C@@]12C(=O)Nc1cc(F)c(F)cc12 [MI-734]	8.2 ± 3.5 µM	5.5 ± 2.1 µM	3.7 ± 1.1 µM	7.4 ± 1.8 µM	> 5 µM				
CC(C)CC(C)(C)C[C@H]1N[C@@H](C(=O)NCC[C@H](O)CO)[C@H](c2cccc(Cl)c2)[C@@]12C(=O)Nc1cc(F)c(F)cc12 [MI-735]	8.5 ± 1.1 µM	1.2 ± 0.3 µM	1.1 ± 0.4 µM	8.6 ± 0.9 µM	< 1 µM				
CC(C)CC(C)(C)C[C@H]1N[C@@H](C(=O)NCC[C@H](O)CO)[C@H](c2ccc(F)c(Cl)c2)[C@@]12C(=O)Nc1cc(F)c(F)cc12 [MI-736]	4.4 ± 0.9 µM	1 ± 0.2 µM	0.9 µM	6.3 ± 1.2 µM	< 1 µM				
CC(C)CC(C)(C)C[C@H]1N(C)[C@@H](C(=O)NCC[C@H](O)CO)[C@H](c2cccc(Cl)c2)[C@@]12C(=O)Nc1cc(F)c(F)cc12 [MI-737]	24.4 µM	5 µM	3.53 µM	11.3 µM	> 1 µM				IC50 [1, 9]: 15 µM; IC50 [1, 10]: 4.5 µM; IC50 [2, 11]: 3.73 µM; IC50 [2, 12]: 11.6 µM
CC(C)CC(C)(C)C[C@H]1N(C)[C@@H](C(=O)NCC[C@H](O)CO)[C@H](c2ccc(F)c(Cl)c2)[C@@]12C(=O)Nc1cc(F)c(F)cc12 [MI-738]	8.2 ± 0.6 µM	8.5 ± 2.1 µM	4.8 ± 1 µM	8.5 ± 0.6 µM	> 3 µM				
CC(C)(C)C[C@H]1N[C@@H](C(=O)N2CCNCC2)[C@H](c2cccc(Cl)c2)[C@@]12C(=O)Nc1cc(Cl)c(F)cc12 [MI-739]						3 ± 0.2 µM	2.1 ± 0.6 µM	< 5 µM	IC50 [2, 15]: 1.5 ± 0.5 µM; IC50 [2, 16]: 3.2 ± 0.7 µM

SMILES	IC50 [1, 4]	IC50 [1, 5]	IC50 [2, 6]	IC50 [2, 7]	IC50 [3, 8]	IC50 [1, 13]	IC50 [1, 14]	IC50 [3, 17]	other results
CN1CCN(C(=O)[C@@H]2N[C@H](CC(C)(C)C)[C@]3(C(=O)Nc4cc(Cl)c(F)cc43)[C@H]2c2cccc(Cl)c2)CC1 [MI-740]						5.4 ± 1.9 µM	2.8 ± 0.1 µM	< 5 µM	IC50 [2, 15]: 2 ± 0.3 µM; IC50 [2, 16]: 4.8 ± 0.8 µM
CC(=O)N1CCN(C(=O)[C@@H]2N[C@H](CC(C)(C)C)[C@]3(C(=O)Nc4cc(Cl)c(F)cc43)[C@H]2c2cccc(Cl)c2)CC1 [MI-742]						19.9 ± 10.3 µM	1.7 ± 0.1 µM	< 10 µM	IC50 [2, 15]: 2.2 ± 0.3 µM; IC50 [2, 16]: 10.2 ± 4.8 µM
CC(C)(C)C[C@H]1N[C@@H](C(=O)N2CCN(C(=O)C3CC3)CC2)[C@H](c2cccc(Cl)c2)[C@@]12C(=O)N(C(=O)C1CC1)c1cc(Cl)c(F)cc12 [MI-743B]	> 1 µM	> 1 µM	> 1 µM	> 1 µM	> 100 µM				
CC(C)(C)C[C@H]1N[C@@H](C(=O)N2CCN(C(=O)C3CC3)CC2)[C@H](c2cccc(Cl)c2)[C@@]12C(=O)Nc1cc(Cl)c(F)cc12 [MI-743]	5.7 ± 3.4 µM	2.4 ± 0.2 µM	2.5 ± 0.5 µM	7.7 ± 3.1 µM	> 1 µM				
CN(C)CC(=O)N1CCN(C(=O)[C@@H]2N[C@H](CC(C)(C)C)[C@]3(C(=O)Nc4cc(Cl)c(F)cc43)[C@H]2c2cccc(Cl)c2)CC1 [MI-744]						5.7 ± 3.4 µM	2.4 ± 0.2 µM	< 10 µM	IC50 [2, 15]: 1.7 ± 0.1 µM; IC50 [2, 16]: 7.7 ± 3.1 µM
CN(C)CCC(=O)N1CCN(C(=O)[C@@H]2N[C@H](CC(C)(C)C)[C@]3(C(=O)Nc4cc(Cl)c(F)cc43)[C@H]2c2cccc(Cl)c2)CC1 [MI-746]						6.7 ± 1.8 µM	2.3 ± 0.1 µM	< 10 µM	IC50 [2, 15]: 2.2 ± 0.4 µM; IC50 [2, 16]: 6.9 ± 1.2 µM
CC(C)(C)C[C@H]1N[C@@H](C(=O)NCC[C@H]2CC[C@@H](O)C2)[C@H](c2cccc(Cl)c2F)[C@@]12C(=O)Nc1cc(Cl)ccc12 [MI-754]					< 1 µM				IC50 [1, 9]: > 5 µM; IC50 [1, 10]: < 3 µM; IC50 [2, 11]: < 3 µM; IC50 [2, 12]: > 5 µM
CC(C)(C)C[C@H]1N[C@@H](C(=O)NCCC2CCC(O)C2)[C@H](c2cccc(Cl)c2F)[C@@]12C(=O)Nc1cc(Cl)ccc12 (stereo partly shown) [MI-755]	> 10 µM	< 3 µM	< 3 µM	> 10 µM	< 1 µM				
CC(C)(C)C[C@H]1N[C@@H](C(=O)NCCN2CCC(O)CC2)[C@H](c2cccc(Cl)c2)[C@@]12C(=O)Nc1cc(Cl)c(F)cc12 [MI-759]						5.2 ± 1 µM	1.4 ± 0.6 µM	< 1 µM	IC50 [2, 15]: 1.4 ± 0.1 µM; IC50 [2, 16]: 5.5 ± 2.3 µM
CC(C)(C)C[C@H]1N[C@@H](C(=O)NC2CCC(N)CC2)[C@H](c2cccc(Cl)c2)[C@@]12C(=O)Nc1cc(Cl)c(F)cc12 (stereo partly shown) [MI-776]							2.7 µM	< 1 µM	IC50 [2, 15]: 2.4 µM; IC50 [2, 18]: 3.2 µM
CC(C)(C)C[C@H]1N[C@@H](C(=O)NC2CCC(NS(=O)(=O)C(F)(F)F)CC2)[C@H](c2cccc(Cl)c2)[C@@]12C(=O)Nc1cc(Cl)c(F)cc12 (stereo partly shown) [MI-777]						7.8 µM	8.9 µM	< 5 µM	IC50 [2, 15]: 6.6 µM; IC50 [2, 18]: 9.2 µM
CC(C)(C)C[C@H]1N[C@@H](C(=O)NC2CCNCC2)[C@H](c2cccc(Cl)c2F)[C@@]12C(=O)Nc1cc(Cl)ccc12 [MI-782]						4.7 µM	0.7 µM	< 1 µM	IC50 [2, 18]: 1.2 µM
CC(=O)N1CCC(NC(=O)[C@@H]2N[C@H](CC(C)(C)C)[C@]3(C(=O)Nc4cc(Cl)ccc43)[C@H]2c2cccc(Cl)c2F)CC1 [MI-783]						18.5 µM	0.9 µM	< 0.5 µM	IC50 [2, 18]: 1.1 µM
CC(C)(C)C[C@H]1N[C@@H](C(=O)NC2CCN(CCO)CC2)[C@H](c2cccc(Cl)c2F)[C@@]12C(=O)Nc1cc(Cl)ccc12 [MI-784]						10.3 µM	0.4 µM	< 0.5 µM	IC50 [2, 18]: 0.7 µM
CC(C)(C)C[C@H]1N[C@@H](C(=O)NC2CCN(CC(C)(C)O)CC2)[C@H](c2cccc(Cl)c2F)[C@@]12C(=O)Nc1cc(Cl)ccc12 [MI-785]						8 µM	0.5 µM	< 0.5 µM	IC50 [2, 18]: 0.7 µM
